Read-outs that look alike come from different tables or passages of the source. *1 amine or outer side, *2 acyl side, *3 side chain or, on linkers, in order; H or OH if unused. Where a SMILES comes first, the peptide text is derived from it. Side-chain parts run from the residue outwards. [ ]: non-standard residue; d: D form. The star is where a group is joined. ξ: configuration not given here. Acryloyl(3-(pyridin-3-yl)) = O=C(C=Cc1cccnc1)*; NMeW = CN[C@@H](Cc1c[nH]c2ccccc12)C(=O)O; ξαMeW = CC(N)(Cc1c[nH]c2ccccc12)C(=O)O; 1Nal = N[C@@H](Cc1cccc2ccccc12)C(=O)O; Desaminotyrosyl = O=C(CCc1ccc(O)cc1)*; Butanoyl(3,3-Me2) = CC(C)(C)CC(=O)*; Isobutyloxycarbonyl = CC(C)COC(=O)*; NH(1-naphthyl) = c1ccc2c(N*)cccc2c1; NMeF = CN[C@@H](Cc1ccccc1)C(=O)O; NMeD = CN[C@@H](CC(=O)O)C(=O)O; NH(2-Me-phenyl) = Cc1ccccc1N*; X5 = O=C(CCc1ccc(O)c(I)c1)*; 3Abz = Nc1cccc(C(=O)O)c1; PhAc = O=C(Cc1ccccc1)*; X26 = Clc1cccc(Cl)c1N*; Boc = CC(C)(C)OC(=O)*; X3 = O=C(C=Cc1cccs1)*; CO = O=C([*:1])[*:2]; X2 = C1CN(CCO*)CCO1
Experiments:
[1] = biological target: T1, Type-A CCK receptor (Cavia porcellus, UniProt Q63931); assay: Radioligand binding of [125I]BH-CCK-8 in guinea pig pancreatic membrane preparations
T1 construct: Cortical and pancreatic membranes were prepared as described; from tissue; host or cells: guinea pig pancreas membranes
T1 sequence (Q63931 1-430): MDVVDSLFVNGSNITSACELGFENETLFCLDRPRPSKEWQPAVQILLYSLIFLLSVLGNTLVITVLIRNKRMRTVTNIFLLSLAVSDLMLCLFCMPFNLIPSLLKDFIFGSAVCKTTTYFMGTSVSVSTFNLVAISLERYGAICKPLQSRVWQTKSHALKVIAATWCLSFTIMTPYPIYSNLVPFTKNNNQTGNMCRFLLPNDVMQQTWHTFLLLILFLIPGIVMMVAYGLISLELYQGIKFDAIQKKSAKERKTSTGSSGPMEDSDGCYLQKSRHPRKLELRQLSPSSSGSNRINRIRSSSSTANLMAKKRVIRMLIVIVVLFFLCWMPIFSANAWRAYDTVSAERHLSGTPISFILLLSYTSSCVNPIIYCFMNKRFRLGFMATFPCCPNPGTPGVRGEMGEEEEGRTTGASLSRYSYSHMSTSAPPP
Source text: (§1) CCK-8 [Asp-Tyr(SO3 H)-Met-Gly-Trp-Met-Asp-PheNH2 ], bestatin and phosphoramidion were purchased from Peptide International (Louisville, Ky.). EGTA (ethylene glycol-bis-(β-aminoethyl) N,N,N',N'-tetraacetic acid), HEPES (4-(2-hydroxyethyl)-1-piperazine-enthanesulfonic acid) and BSA (bovine serum albumin) were purchased from Sigma Chemical Co. (St. Louis, Mo.). [^125 I]-Bolton-Hunteer (BH-CCK-8) (specific activity, 2200 Ci/mmol) was obtained from New England Nuclear (Boston, Mass.). Male guinea pigs, 250 to 325 g, were obtained from Scientific Small Animal Laboratory and Farm (Arlington Heights, Ill.). Collagenase, code CLSPA was purchased from Worthington (Frehold, N.J.).
(§2) Protocol For Radioligand Binding Experiments in Guinea Pig Cerebral Cortical and Pancreatic Membrane Preparations
(§3) Cortical and pancreatic membranes were prepared as described (Lin and Miller; J. Pharmacol. Exp. Ther. 1985, 232:775-780,). In brief, cortex and pancreas were removed and rinsed with ice-cold saline. Visible fat and connective tissues were removed from the pancreas. […] The homogenates were entrifuged for 10 minutes at 1075×g and pellets were discarded. The supernatants were saved and centrifuged at 38,730×g for 20 minutes. The resultant pellets were rehomogenized in 25 mL of 50 mM Tris-HCl buffer with a Teflon-glass homogenizer, 5 up and down strokes. The homogenates were centrifuged again at 38,730×g for 20 minutes. Pellets werre then resuspended in 20 mM HEPES, containing 1 mM EGTA, 118 mM NaCl, 4.7 mM KCl, 5 mM MgCl2, 100 μM bestatin, 3 μM phosphoramidon, pH 7.4 at 22° C. with a Teflon-glass homogenizer, 15 up and down strokes. Resuspension volume for the cortex was 15-18 mL per gram of original wet weight and 60 mL per gram for the pancreas.
(§4) [^125 I]Bolton-Hunter CCK-8 and test compounds were diluted with HEPES-EGTA-salt buffer (see above) containing 0.5% BSA. To 1 mL Skatron polystyrene tubes were added 25 μL of test compounds, 25 μL of [^125 I]BH-CCK-8 and 200 μL of membrane suspension. The final BSA concentration was 0.1%. The cortical tissues were incubated at 30° C. for 150 minutes and pancreatic tissues were incubated at 37° C. for 150 min. Incubations were terminated by filtration using Skatron Cell Harvester and SS32 microfiber filter mats. […] IC50 s were determined from the Hill analysis.

[2] = biological target: T2, Type-B CCK receptor (Cavia porcellus, UniProt H0VZC5); assay: Radioligand binding of [125I]BH-CCK-8 in guinea pig cerebral cortical membrane preparations
T2 construct: Cortical and pancreatic membranes were prepared as described; from tissue; host or cells: guinea pig cerebral cortex membranes
T2 sequence (H0VZC5 1-426): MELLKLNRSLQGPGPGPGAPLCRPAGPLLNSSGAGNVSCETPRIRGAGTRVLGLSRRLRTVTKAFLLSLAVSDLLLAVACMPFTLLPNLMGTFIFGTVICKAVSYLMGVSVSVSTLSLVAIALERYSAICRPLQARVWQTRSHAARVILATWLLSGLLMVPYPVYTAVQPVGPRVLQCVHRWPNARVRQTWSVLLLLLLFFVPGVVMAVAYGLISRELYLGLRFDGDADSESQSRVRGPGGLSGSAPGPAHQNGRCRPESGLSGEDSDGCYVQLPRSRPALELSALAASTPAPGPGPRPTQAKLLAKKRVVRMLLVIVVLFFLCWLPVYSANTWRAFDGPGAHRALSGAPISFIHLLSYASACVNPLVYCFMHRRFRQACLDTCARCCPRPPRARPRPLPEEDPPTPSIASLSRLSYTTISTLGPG
Source text: as §1, §2, §3, §4

[3] = IC50 (nM) 125I-BH-CCK-8 Type-A receptor, guinea pig pancreatic membranes, 37° C., 150 min
[4] = IC50 (nM) 125I-BH-CCK-8 Type-B receptor, guinea pig cortical membranes, 30° C., 150 minutes
[5] = guinea pig pancreatic membranes, 37° C., 150 min, read-out: IC50 (nM) 125I-BH-CCK-8 Type-A receptor
[6] = guinea pig cortical membranes, 30° C., 150 minutes, read-out: IC50 (nM) 125I-BH-CCK-8 Type-B receptor

| SMILES | IC50 [1, 3] | IC50 [2, 4] | IC50 [1, 5] | IC50 [2, 6] | other results |
| --- | --- | --- | --- | --- | --- |
| Cc1ccccc1NC(=O)NCCCC[C@H](NC(=O)[C@H](Cc1c[nH]c2ccccc12)NC(=O)Cc1ccccc1)C(=O)N[C@@H](CC(=O)O)C(=O)N(C)[C@@H](Cc1ccccc1)C(N)=O [Example 91, Phenylacetyl-Trp-Lys(ε-N-(2-methylphenyl)aminocarbonyl)-Asp-(NMe)PheNH2] (PhAc-WK([CO-NH(2-Me-phenyl)])D[NMeF]-NH2) | 19 nM | > 10000 nM | – | – | – |
| Cc1ccccc1NC(=O)NCCCC[C@H](NC(=O)C(F)Cc1c[nH]c2ccccc12)C(=O)N(C)[C@@H](CC(=O)O)C(=O)N[C@@H](Cc1ccccc1)C(N)=O (some centres unmarked) [Example 109, (2-Fluoro-3-(3-indolyl)propionyl)-Lys(ε-N-(2-methylphenyl)aminocarbonyl)-(NMe)Asp-PheNH2] | – | – | 15 nM | > 10000 nM | – |
| Cc1ccccc1NC(=O)NCCCC[C@H](NC(=O)C(F)Cc1c[nH]c2ccccc12)C(=O)N[C@@H](CC(=O)O)C(=O)N(C)[C@@H](Cc1ccccc1)C(N)=O (some centres unmarked) [Example 108, (2-Fluoro-3-(3-indolyl)propionyl)-Lys(ε-N-(2-methylphenyl)aminocarbonyl)-Asp-(NMe)PheNH2] | – | – | 14 nM | 10000 nM | – |
| Cc1ccccc1NC(=O)NCCCC[C@H](NC(=O)[C@H](Cc1c[nH]c2ccccc12)NC(=O)CCc1ccc(O)c(I)c1)C(=O)N[C@@H](CC(=O)O)C(=O)N(C)[C@@H](Cc1ccccc1)C(N)=O [Example 93, (3-(4-Hydroxy-3-iodophenyl)propionyl)-Trp-Lys(ε-N-(2-methylphenyl)aminocarbonyl)-Asp-(NMe)PheNH2] (X5-WK([CO-NH(2-Me-phenyl)])D[NMeF]-NH2) | – | – | – | – | IC50 [1]: 4.6 nM; IC50 [2]: 4200 nM |
| CC(=O)N[C@@H](Cc1c[nH]c2ccccc12)C(=O)N[C@@H](CCCCNC(=O)Nc1ccccc1C)C(=O)N[C@@H](CC(=O)O)C(=O)N(C)[C@@H](Cc1ccccc1)C(N)=O [Example 85, Acetyl-Trp-Lys(ε-N-(2-methylphenyl)aminocarbonyl)-Asp-(NMe)PheNH2] (Ac-WK([CO-NH(2-Me-phenyl)])D[NMeF]-NH2) | 5.8 nM | 10000 nM | – | – | – |
| CN(C(=O)[C@H](CCCCNC(=O)C=Cc1cccs1)NC(=O)[C@H](Cc1c[nH]c2ccccc12)NC(=O)OC(C)(C)C)[C@@H](CC(=O)O)C(=O)N[C@@H](Cc1ccccc1)C(N)=O [Example 66, t-BOC-Trp-Lys-(ε-N-3-(2-thienyl)acrylyl)-(NMe)Asp-PheNH2] (Boc-WK(X3)[NMeD]F-NH2) | – | – | 35 nM | 8100 nM | – |
| CC(C)(C)OC(=O)N[C@@H](Cc1c[nH]c2ccccc12)C(=O)N[C@@H](CCCCNC(=O)CCc1ccc(O)cc1)C(=O)N[C@@H](CC(=O)O)C(=O)N[C@@H](Cc1cccc2ccccc12)C(N)=O [Example 21, t-BOC-Trp-Lys(ε-N-(3-(4-hydroxyphenyl)propionyl))-Asp-α-NalNH2] (Boc-WK(Desaminotyrosyl)D[1Nal]-NH2) | – | – | 33 nM | 1200 nM | – |
| CN(C(=O)[C@H](CCCCNC(=O)C=Cc1cccnc1)NC(=O)[C@H](Cc1c[nH]c2ccccc12)NC(=O)OC(C)(C)C)[C@@H](CC(=O)O)C(=O)N[C@@H](Cc1ccccc1)C(N)=O [Example 67, t-BOC-Trp-Lys-(ε-N-3-(3-pyridyl)acrylyl)-(NMe)Asp-PheNH2] (Boc-WK(Acryloyl(3-(pyridin-3-yl)))[NMeD]F-NH2) | – | – | 40 nM | 8300 nM | – |
| Cc1ccccc1NC(=O)NCCCC[C@H](NC(=O)[C@H](Cc1c[nH]c2ccccc12)NC(=O)OC(C)(C)C)C(=O)N[C@@H](CC(=O)OCCN1CCOCC1)C(=O)N(C)[C@@H](Cc1ccccc1)C(N)=O [Example 120, t-BOC-Trp-Lys(ε-N-(2-methylphenyl)aminocarbonyl)-Asp(β-2-(1-morpholino)ethyl)-(NMe)PheNH2] (Boc-WK([CO-NH(2-Me-phenyl)])D(X2)[NMeF]-NH2) | – | – | – | – | IC50 [1]: 26 nM; IC50 [2]: 13000 nM |
| Cc1ccccc1NC(=O)NCCCC[C@H](NC(=O)[C@H](Cc1c[nH]c2ccccc12)NC(=O)CC(C)(C)C)C(=O)N(C)[C@@H](CC(=O)O)C(=O)N[C@@H](Cc1ccccc1)C(N)=O [Example 88B, t-butylacetyl-Trp-Lys(ε-N-(2-methylphenyl)aminocarbonyl)-(NMe)Asp-PheNH2] ({Butanoyl(3,3-Me2)}-WK([CO-NH(2-Me-phenyl)])[NMeD]F-NH2) | 3.7 nM | > 10000 nM | – | – | – |
| CN[C@@H](Cc1c[nH]c2ccccc12)C(=O)N[C@@H](CCCCNC(=O)Nc1ccccc1C)C(=O)N[C@@H](CC(=O)O)C(=O)N(C)[C@@H](Cc1ccccc1)C(N)=O [Example 101, (NMe)Trp-Lys(ε-N-(2-methylphenyl)aminocarbonyl)-Asp-(NMe)PheNH2] (H-[NMeW]K([CO-NH(2-Me-phenyl)])D[NMeF]-NH2) | 9.3 nM | 12000 nM | – | – | – |
| Cc1ccccc1NC(=O)NCCCC[C@H](NC(=O)[C@H](Cc1c[nH]c2ccccc12)NC(=O)OCC(C)C)C(=O)N[C@@H](CC(=O)O)C(=O)N(C)[C@@H](Cc1ccccc1)C(N)=O [Example 77, Isobutyloxycarbonyl-Trp-Lys(ε-N-(2-methylphenyl)aminocarbonyl)-Asp-(NMe)PheNH2] (Isobutyloxycarbonyl-WK([CO-NH(2-Me-phenyl)])D[NMeF]-NH2) | 2.3 nM | 6500 nM | – | – | – |
| Cc1ccccc1NC(=O)NCCCC[C@H](NC(=O)C(C)(N)Cc1c[nH]c2ccccc12)C(=O)N(C)[C@@H](CC(=O)O)C(=O)N[C@@H](Cc1ccccc1)C(N)=O (some centres unmarked) [Example 123] (H-[ξαMeW]K([CO-NH(2-Me-phenyl)])[NMeD]F-NH2) | 5.9 nM | > 10000 nM | – | – | – |
| CC(C)(C)OC(=O)N[C@@H](Cc1c[nH]c2ccccc12)C(=O)N[C@@H](CCCCNC(=O)Nc1c(Cl)cccc1Cl)C(=O)N[C@@H](CC(=O)O)C(=O)N[C@@H](Cc1ccccc1)C(N)=O [Example 47, t-BOC-Trp-Lys(ε-N-(2,6-dichlorophenyl)aminocarbonyl)-Asp-PheNH2] (Boc-WK([CO-X26])DF-NH2) | – | – | – | 7000 nM | – |
| CC(C)(C)OC(=O)N[C@@H](Cc1c[nH]c2ccccc12)C(=O)N[C@@H](CCCCNC(=O)Nc1cccc2ccccc12)C(=O)N[C@@H](CC(=O)O)C(=O)N[C@@H](Cc1ccccc1)C(N)=O [Example 28, t-BOC-Trp-Lys(ε-N-(α-naphthyl)aminocarbonyl)-Asp-PheNH2] (Boc-WK([CO-NH(1-naphthyl)])DF-NH2) | – | – | – | – | IC50 [2]: 10000 nM |
| COC(=O)c1cccc(NC(=O)NCCCC[C@H](NC(=O)[C@H](Cc2c[nH]c3ccccc23)NC(=O)OC(C)(C)C)C(=O)N[C@@H](CC(=O)O)C(=O)N[C@@H](Cc2ccccc2)C(N)=O)c1 [Example 46, t-BOC-Trp-Lys(ε-N-(3-(methoxycarbonyl)phenyl)aminocarbonyl)-Asp-PheNH2] (Boc-WK([CO-3Abz-OMe])DF-NH2) | – | – | – | 1400 nM | – |

Reference: patent US5270302A, “Derivatives of tetrapeptides as CCK agonists” (priority 1991, dated 1993)
